{"source": "patent US11702402B2", "about": "“Small molecules that block proteasome-associated ubiquitin receptor RPN13 function and uses thereof” (DANA-FARBER CANCER INSTITUTE, INC., priority 2018, dated 2023)", "key": {"RPN13 [1]": {"molecular_target": "T1, RPN13 (Homo sapiens, UniProt Q16186)", "T1 sequence (Q16186 whole entry)": "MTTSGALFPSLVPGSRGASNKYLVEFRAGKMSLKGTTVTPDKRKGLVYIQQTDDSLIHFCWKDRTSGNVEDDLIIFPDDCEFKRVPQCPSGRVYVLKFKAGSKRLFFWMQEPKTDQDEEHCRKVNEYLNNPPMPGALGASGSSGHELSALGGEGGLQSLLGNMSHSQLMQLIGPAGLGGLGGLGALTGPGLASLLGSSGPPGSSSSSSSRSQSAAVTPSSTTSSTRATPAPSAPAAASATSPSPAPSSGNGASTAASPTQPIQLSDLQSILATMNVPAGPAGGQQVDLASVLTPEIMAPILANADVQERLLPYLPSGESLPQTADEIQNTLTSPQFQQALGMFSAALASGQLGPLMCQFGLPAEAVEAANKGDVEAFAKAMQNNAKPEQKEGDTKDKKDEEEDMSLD", "assay": "RPN13 AlphaScreen (Rpn13 / biotinylated polyUb recognition)", "assay_type": "binding", "settings": "RA190 as positive control", "description": "Assays were performed with minimal modifications from the manufacturer's protocol (PerkinElmer, USA). All reagents were diluted in 50 mM HEPES, 150 mM NaCl, 0.1% w/v BSA, 0.01% w/v Tween20, pH 7.5, and allowed to equilibrate to room temperature prior to addition to plates. After addition of Alpha beads to master solutions, all subsequent steps were performed under low light conditions. A 2× solution of components with final concentrations of RPN13 at 670 nM, Ni-coated Acceptor Bead at 20 μg/ml, and 5 nM biotinylated-poly-Ub K48-linked chains (UCB-230, BostonBiochem, USA) was added in 10 μL to 384-well plates (AlphaPlate-384, PerkinElmer, USA). Plates were spun down at 150×g, and 100 nL of compound in DMSO from stock plates were added by pin transfer using a Janus Workstation (PerkinElmer, USA). The streptavidin-coated donor beads (20 μg/ml final) were added, as with previous the solution, in a 2×, 10 μL volume. Following this addition, plates were sealed with foil to prevent light exposure and evaporation. The plates were spun down again at 150 g. Plates were incubated at room temperature for 1 hour, and then read on an Envision 2104 (PerkinElmer, USA), using the manufacturer's protocol.\nSeveral experiments were performed to confirm the specificity of WL40. […] It was then examined whether the bivalent molecule, WL40, can bind to Rpn13. […]"}, "[2]": {"molecular_target": "Recombinant 20S proteasome (Homo sapiens, UniProt P28072+P28074+Q99436)", "assay": "Recombinant 20S proteasome activity assay", "assay_type": "biochemical", "settings": "purified recombinant 20S proteasome; 30 minutes", "description": "(§1) MM.1S cells, which were treated with DMSO control, bortezomib, or WL40 at indicated concentration for 3 hours; protein lysates were analyzed for different proteasome activities (CT-L, chymotrypsin-like; T-L, trypsin-like; C-L, caspase-like). FIG. 20B is a bar graph showing percent proteasome activity after normalization with DMSO control (mean±SD; n=3). Recombinant 20S proteasome was incubated with DMSO, bortezomib, or WL40 for 30 minutes, followed by assessment of the above-noted proteasome activities. FIG. 20C MM.1S cells were pretreated with exemplary proteasome inhibitor MG132 (10 μM) for 1 hour, followed by addition of WL40 (400 nM) for 8 hours. […] Total protein lysates were subjected to immunoblots for Rpn13 and α-tubulin. […] FIG. 20E ANBL6.BR cells were treated with WL40 (400 nM) or RA190 (500 nM) for 16 hours; protein lysates were subjected to immunoblot analysis using anti-Rpn13 or anti-β-actin Abs.\nTo eliminate the potential impact of WL40 on proteasome function, the effect of WL40 on proteasome activities was assessed."}, "MM.1R cells": {"tested_on": "MM.1R cells", "assay": "MM.1R cell viability (WST)", "assay_type": "cell-based, Human", "settings": "MM.1R (dexamethasone-resistant), 48 hours", "from_the_text": "(§2) The IC50 of WL40 for cell lines is shown."}, "RPMI-8226 cells": {"tested_on": "RPMI-8226 cells", "assay": "RPMI-8226 cell viability", "assay_type": "cell-based, Human", "settings": "p53-mutated RPMI-8226; 48 hours", "from_the_text": "as §2"}, "INA6 MM cells": {"tested_on": "INA6 MM cells", "assay": "INA6 cell viability", "assay_type": "cell-based, Human", "settings": "IL-6-dependent INA6; 48 hours", "from_the_text": "as §2"}, "normal PBMCs": {"tested_on": "normal PBMCs", "assay": "Viability of normal PBMCs", "assay_type": "cell-based, Human", "settings": "48 hours", "description": "FIGS. 5A and 5B show PBMCs from normal healthy donor treated with WL40 and WL44 at the indicated concentrations for 48 hours. […]\nas §2"}, "[3]": {"tested_on": "MM.1S cells co-cultured with patient pDCs", "assay": "MM.1S co-culture with patient pDCs (WST)", "assay_type": "cell-based, Human", "settings": "48 hours", "from_the_text": "as §2"}, "RPN13 [4]": {"molecular_target": "T1, RPN13", "assay": "Rpn13 immunoblot in RPMI-8226 cells", "assay_type": "cell-based", "parameters": "endogenous in cells; host or cells: MM.1S; MM.1S-CRBN KO; RPMI-8226; ANBL6.BR", "settings": "RPMI-8226 (p53-mutated); 400 nM; 16 hours", "description": "as §1\n(§3) Cellular protein extracts were prepared using RIPA lysis buffer (50 mM Tris-HCl, 150 mM NaCl, 1% NP-40, 0.5% sodium deoxycholate, and 0.1% SDS). […]\n(§4) Next, the effect of WL40 on additional MM cell lines, including p53-mutated RPMI-8226 cells or bortezomib-resistant ANBL6.BR cells, was evaluated. […]"}, "RPN13 [5]": {"molecular_target": "T1, RPN13", "assay": "Rpn13 immunoblot in ANBL6.BR cells", "assay_type": "cell-based", "parameters": "endogenous in cells; host or cells: MM.1S; MM.1S-CRBN KO; RPMI-8226; ANBL6.BR", "settings": "ANBL6.BR (bortezomib-resistant); 400 nM; 16 hours", "description": "as §1, §3, §4"}}, "data": [{"smiles": "O=C1CCC(N2C(=O)c3cccc(NCCOCCOCCOCCC(=O)N[C@@H](Cc4ccccc4)C(=O)N4C/C(=C\\c5ccc(Cl)c(Cl)c5)C(=O)/C(=C/c5ccc(Cl)c(Cl)c5)C4)c3C2=O)C(=O)N1", "note": "(stereo partly shown) [WL40]", "values": [{"measurement": "Rpn13 binding", "setting": "RPN13 [1]", "value": "binds to Rpn13"}, {"measurement": "20S proteasomal activities (chymotrypsin-like, trypsin-like, caspase-like)", "setting": "[2]", "value": "does not inhibit 20S proteasomal activities"}, {"measurement": "cytotoxicity (cell viability)", "setting": "MM.1R cells", "value": "more cytotoxic than the parental Rpn13 inhibitor RA190"}, {"measurement": "cytotoxic activity (cell viability)", "setting": "RPMI-8226 cells", "value": "cytotoxic activity"}, {"measurement": "cytotoxic activity (cell viability)", "setting": "INA6 MM cells", "value": "cytotoxic activity"}, {"measurement": "viability of normal PBMCs", "setting": "normal PBMCs; at the IC50, Wst-1", "value": "do not significantly affect the viability"}, {"measurement": "viability of normal PBMCs", "setting": "normal PBMCs; at the IC50 for MM cells, CellTiter-Glo", "value": "does not affect viability of normal PBMCs"}, {"measurement": "viability of MM cells in co-culture", "setting": "[3]", "value": "dose-dependent decrease in the viability of MM cells"}, {"measurement": "Rpn13 levels (immunoblot)", "setting": "RPN13 [4]", "value": "induced RPN13 degradation"}, {"measurement": "Rpn13 levels (immunoblot)", "setting": "RPN13 [5]", "value": "induced RPN13 degradation"}]}]}
